Laboratory results published in patent US9387212B2, “Methods for treating Parkinson's disease” (UCB Pharma S.A., priority 2012, dated 2016).

Columns and labels:
[1] = system: PD patients; settings: Mizuno et al. 2010; Nutt et al., 2008; cited from earlier work
[2] = system: unilateral 6-OHDA-lesioned rats; experiment: Video-based behavioural profile analysis (Ethovision) in drug-naive hemi-parkinsonian rats; assay type: in vivo, rat; settings: % of the veh-treated rats; for Distance (quantity of movement): Radiprodil 3 mg/kg po, Tozadenant 30 mg/kg po, LD25 ip, LD/BZ 16/4 mg/kg ip; for Adequate body position / Adequate trajectory (gyration radius) / Contra turns (ability to shift direction) / Ipis turns (ability to shift direction): same doses
Method: (§1) The specific behavioural profile of unilateral 6-OHDA-lesioned rats was recorded via 8 cameras connected to a video acquisition system. Rats under treatment were placed freely in a small environment (rotometers, 25×22 cm) or in large open-field (50×40 cm) and the behaviour was video-recorded for 55 minutes (total of 3300 sec). The placement in the small (rotometers) or large (open-field) environment may depend on the test. The rats were filmed from below as described in the section which concerns the rotational activity.
(§2) After the in-live data recordings, the videos are subsequently analyzed by the Ethovision program from (Noldus, version 9.0). The animal and its movements and displacements were defined according to three points (nose, center and tail). The movements, position of the body and, the space occupation, were set-up according to the filter analysis defined with specific criteria and thresholds in the program. Various behavioural parameters were analyzed and only the relevant, i.e. the non-correlated ones, were kept for the final behavioural description.
(§3) The analysis of the other types of behaviours was done with specific parameters selected in the video analysis program (Ethovision 9.0) in order to describe as best as possible the behaviour observed visually and being able to quantify it. The parameters “Distance”, “Counter Clockwise rotations”, “Clockwise rotations”, “Streched” were extracted from the analysis. Additional parameter, the “gyration radius” is calculated from the raw data obtained by the system. • Distance (=“distance”): the total distance moved by the animal (cm) • Counter clockwise (=“ipsilateral turns”): count of the number of 360° turns of ipsilateral rotations in the same sense than that of the lesion. • Clockwise (=“contralateral turns”): count of the number of 360° turns of contralateral rotations in the opposite sense to that of the lesion. • Stretched: (=“adequate body position”): time spent in a position wherein the rat stands on its four paws without any bent position of the trunk. In the program this is the parameter “body elongation” that is used to discriminate the intensity and frequency of the adequate body position. The threshold is fixed at 70%. • Gyration Radius (=“adequate trajectory”): for a specific time interval, average distance between the animal position and its average position within this specific time interval. This parameter reflect the ability of the rats to use the entire space of the arena and is measured in centimeters. Statistical Analysis
Specific behavioural analysis: The five behaviours kept for the thorough behavioural analysis (i.e. distance, contra turns, ipsi turns, adequate body position and adequate trajectory) were analyzed with parametric statistic however if variance homogeneity was not respected for the data (Bartlett's test for equal variances) these latter were analyzed with non-parametric statistics (Kruskal-Wallis). In both case, one-way ANOVA was performed to discriminate the effect of the various treatments on each independent behaviours. Significant differences between means were determined by Tukey post hoc test or Dunn's Multiple Comparison test with p<0.05.
The effects of the oral co-administration of Radiprodil (3 mg/kg, po) with Tozadenant (30 mg/kg, po) on the rat behaviour are compared to the testing of: • 1) these compounds separately • 2) a partially active dose of L-Dopa (25 mg/kg, ip) • 3) a fully active dose of L-Dopa/benserazide (16/4 mg/kg, ip).
The behavioural profile was analyzed in detail with an automated behavioural analysis system based on video recordings (see methods section for the description). In addition, classical measurements (rotometers and actometers) of the behaviour are also used to assess quantity of movements. […]

[3] = system: hemi-parkinsonian L-Dopa-primed rats; experiment: Behavioural profile analysis in L-Dopa-primed, fully dyskinetic hemi-parkinsonian rats; assay type: in vivo, rat; settings: Radiprodil 3 mg/kg, Tozadenant 30 mg/kg
Method: as §1, §2
The analysis of the Abnormal Involuntary movement (“AIMs”) was performed with a specific parameter defined in Ethovision 9.0. The parameter “body elongation” was used to discriminate both the intensity and the frequency of dyskinetic (i.e. dystonic) position of the rat.
as §3
Consecutively to that chronic L-Dopa/benzerazide treatment, they show a very high level of contralateral rotations and AIMs at the end of this chronic treatment when tested in the open-field. […] This absence of cross-sensitization on the level of contralateral rotations and AIMs result was entirely unexpected.

[4] = system: unilateral 6-OHDA-lesioned rat model of Parkinson's disease; experiment: General activity (distance travelled, rearing counts) in actometers; assay type: in vivo; settings: Radiprodil 3 mg/kg po, Tozadenant 30 mg/kg po; three-way mixed ANOVA, Tukey p<0.05
Method: Subjects: Males Sprague-Dawley rats (Janvier, France), weighing 250-275 g at the time of surgery and 400-450 g at the time of drug testing are used.
On the day of surgery, one week after arrival, rats received unilateral 6-OHDA injection into the right medial forebrain bundle. Each rat was administered with Imipramine HCl (Sigma) 15 minutes before surgery to protect norepinephrinergic (NE) neurons. Rats were anesthetized with Ketamine (Ceva, 75 mg/kg) and Xylazine (Bayer, 10 mg/kg) and placed in stereotaxic frame (David Kopf Instrument). […] Each rat was monitored and handled regularly for 3 weeks to ensure full recovery and acclimation to the experimenters and environment. […]
General activity was recorded within large open-field measuring horizontal and vertical movements and connected to PCs. […] Locomotion was detected and measured by 16 infrared light-beam sensors located on each side of the enclosure at heights of 3 cm. […] Activity counts were recorded by a personal computer. […]
The level of general activity (distance and rearing) measurement in actometers was assessed by three-way mixed ANOVA with the A2A antagonist (2 levels) and the NR2B antagonist (2 levels) as between-group factors and the time as within-subjects factor (6 or 24 levels). […]

Compound: CCn1c(=O)c2c(nc(/C=C/c3ccc(OC)c(OC)c3)n2C)n(CC)c1=O [KW-6002]
- efficacy in clinical trials in PD patients [1]: did not show the expected efficacy

Compound: C[C@@H]([C@@H](O)c1ccc(O)cc1)N1CCC(O)(c2ccccc2)CC1 [Traxoprodil]
- efficacy in clinical trials in PD patients [1]: did not show the expected efficacy

Compound: N[C@@H](Cc1ccc(O)c(O)c1)C(=O)O [LD25, L-dihydroxyphenylalanine]
- Distance (quantity of movement) ([2]; 0-20′): ++ (300-500%)
- Adequate body position ([2]; 0-20′): + (200-300%)
- Adequate trajectory (gyration radius) ([2]; 0-20′): +++ (>500%)
- Contra turns (ability to shift direction) ([2]; 0-20′): +++ (>500%)
- Ipis turns (ability to shift direction) ([2]; 0-20′): ++ (300-500%)
- Distance (quantity of movement) ([2]; 30-50′): +++ (>500%)
- Adequate body position ([2]; 30-50′): ++ (300-500%)
- Adequate trajectory (gyration radius) ([2]; 30-50′): +++ (>500%)
- Contra turns (ability to shift direction) ([2]; 30-50′): +++ (>500%)
- Ipis turns (ability to shift direction) ([2]; 30-50′): ++ (300-500%)

Compound: COc1ccc(N2CCOCC2)c2sc(NC(=O)N3CCC(C)(O)CC3)nc12 [Tozadenant, 4-hydroxy-4-methyl-piperidine-1-carboxylic acid (4-methoxy-7-morpholin-4-yl-benzothiazol-2-yl)-amide]
- Adequate body position, in comparison to the same rats under L-Dopa/benserazide ([3]; arrow gives direction vs LD/BZ): 4151% ↑
- Contra turns, in comparison to the same rats under L-Dopa/benserazide ([3]; arrow gives direction vs LD/BZ): 11% ↓
- No AIMs, in comparison to the same rats under L-Dopa/benserazide ([3]; arrow gives direction vs LD/BZ): 948% ↑
- Severe AIMs, in comparison to the same rats under L-Dopa/benserazide ([3]; arrow gives direction vs LD/BZ): 12% ↓
- Distance, in comparison to the same rats under L-Dopa/benserazide ([3]; arrow in cell: increase, decrease or no change vs LD/BZ): 56% ↓
- Distance (quantity of movement) ([2]; 0-20′): + (200-300%)
- Adequate body position ([2]; 0-20′): + (200-300%)
- Adequate trajectory (gyration radius) ([2]; 0-20′): +++ (>500%)
- Contra turns (ability to shift direction) ([2]; 0-20′): + (200-300%)
- Ipis turns (ability to shift direction) ([2]; 0-20′): + (200-300%)
- Distance (quantity of movement) ([2]; 30-50′): ++ (300-500%)
- Adequate body position ([2]; 30-50′): ++ (300-500%)
- Adequate trajectory (gyration radius) ([2]; 30-50′): +++ (>500%)
- Contra turns (ability to shift direction) ([2]; 30-50′): ++ (300-500%)
- Ipis turns (ability to shift direction) ([2]; 30-50′): ++ (300-500%)
- distance (FIG. 1, right graph) [4]: Significant effect
